In ChEMBL document CHEMBL1201862, “PubChem BioAssay data set” (2004):
Calls of active or inactive are those of the source. Cut-off read from the data, not from the text of the source, for most assays here: actives have a measured EC50 and inactives only a lower limit.

Key:
[1] = tested on: Streptococcus; test: GAS UMAA2166 growth inhibition – luminescence, BacTiterGlo, counter-screen for streptokinase expression inhibitor project, dose response (AID 1915); assay type: functional, organism-based;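 note: potency for reduction of bacterial viability or growth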
[2] = tested on: Streptococcus sp. 'group A'; test: Streptococcus pyogenes SK(-)GAS viability under kanamycin – luminescence, BacTiterGlo, confirmation, counter-screen for streptokinase expression inhibitor project, dose response (AID 1900); assay type: functional, organism-based
[3] = viability of uninfected HEp-2 cells – cell-based, HTS, cytotoxicity control for RSV inhibitor project, dose response (AID 2410); assay type: functional; settings: human respiratory syncytial virus
[4] = Trypanosoma cruzi growth suppression in host cells – NIH3T3 host cells, beta-gal luminescence, confirmation (AID 2044); assay type: functional, cell-based;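 note: intracellular parasites grown in NIH/3T3 mouse fibroblasts as host cells; luminescent beta-galactosidase reporter signal from transgenic T. cruzi replicating inside host cells; inhibitors lower the luminescence signal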
[5] = NIH3T3 cell viability loss – ATP luminescence, mouse fibroblasts, counter-screen, dose response (AID 2010); assay type: functional, cell-based;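 note: cells exposed to compound for about 90 hours before reading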
[6] = target: T1, Streptokinase A (Streptococcus pyogenes serotype M1, UniProt P10520); test: viability-normalized secreted streptokinase activity reduction – plasminogen activation absorbance, OD405, dose response (AID 1914); assay type: functional, Streptococcus pyogenes M1 GAS;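 note: secreted streptokinase activity via plasminogen activation per viability signal from cell pellet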
T1 sequence (P10520 whole entry): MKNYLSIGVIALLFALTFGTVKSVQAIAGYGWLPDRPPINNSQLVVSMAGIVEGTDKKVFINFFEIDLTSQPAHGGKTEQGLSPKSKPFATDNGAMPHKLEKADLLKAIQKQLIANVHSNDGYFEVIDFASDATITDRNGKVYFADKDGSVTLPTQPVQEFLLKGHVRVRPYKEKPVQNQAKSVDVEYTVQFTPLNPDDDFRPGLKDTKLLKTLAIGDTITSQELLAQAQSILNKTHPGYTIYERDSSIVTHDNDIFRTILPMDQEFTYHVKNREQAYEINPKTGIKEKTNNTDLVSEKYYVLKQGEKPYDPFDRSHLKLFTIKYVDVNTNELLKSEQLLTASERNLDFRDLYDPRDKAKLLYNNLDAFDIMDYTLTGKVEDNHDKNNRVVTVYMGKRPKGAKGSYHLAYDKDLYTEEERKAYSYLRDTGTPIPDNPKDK

[7] = tested on: INS1; test: INS-1E survival protection against cytokine death – cell-based, luminescence, retest, dose response (AID 449756); assay type: functional; settings: Rattus norvegicus;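 note: cell death triggered by IL-1 beta plus TNF-alpha plus IFN-gamma mixture; protective hits raise ATP signal compared with cytokine alone wells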
[8] = target: T2, Cytochrome P450 1A2 (Homo sapiens, UniProt P05177);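 note: PubChem cytochrome P450 panel assay, CYP1A2 panel member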
T2 sequence (P05177 whole entry): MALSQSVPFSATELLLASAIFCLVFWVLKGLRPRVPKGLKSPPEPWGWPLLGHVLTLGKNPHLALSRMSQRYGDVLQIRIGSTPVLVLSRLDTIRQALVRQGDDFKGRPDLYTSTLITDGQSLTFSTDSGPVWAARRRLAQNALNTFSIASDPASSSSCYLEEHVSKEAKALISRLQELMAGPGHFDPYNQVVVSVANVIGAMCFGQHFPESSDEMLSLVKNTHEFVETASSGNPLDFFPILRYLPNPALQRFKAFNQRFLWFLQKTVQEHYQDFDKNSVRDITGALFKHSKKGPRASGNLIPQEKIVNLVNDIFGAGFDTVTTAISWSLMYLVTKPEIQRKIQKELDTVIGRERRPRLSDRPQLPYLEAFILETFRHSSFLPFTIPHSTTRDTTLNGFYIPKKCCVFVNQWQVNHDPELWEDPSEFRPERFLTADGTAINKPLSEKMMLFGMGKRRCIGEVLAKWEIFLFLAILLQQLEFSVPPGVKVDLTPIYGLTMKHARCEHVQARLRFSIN

[9] = Luminescence Cell-Based Dose Retest to Confirm Inhibitors of Cancer Stem Cells. [Related pubchem assays (depositor defined):AID2717, AID2721]; assay type: functional; settings: Homo sapiens

Compound: O=C(NNC(=S)NC(=O)c1ccccc1)c1cccc([N+](=O)[O-])c1
- EC50 [1]: 8.75 µM (active)
- EC50 [2]: 3.85 µM (active)

Compound: COc1ccc(NC(=O)/C=C/c2cccc(F)c2)cn1
- CC50 [3]: 34.7 µM (active)

Compound: CCC(C)Sc1ccc(-c2nc3ccc(C)cn3c2NC2CCCCC2)cc1 (stereo unspecified)
- EC50 [4]: 0.885 µM (active)
- EC50 [5]: > 60 µM (not active)

Compound: CNc1nc(OC)nc(N(C#N)CN2C(=O)c3ccccc3S2(=O)=O)n1
- EC50 [1]: > 150 µM (not active)
- EC50 [2]: > 150 µM (not active)
- EC50 [6]: > 150 µM (not active)

Compound: CC(C)[C@H](NC(=O)N1CC(=O)Nc2ccccc21)C(=O)N[C@@H](Cc1ccccc1)C(=O)O
- EC50 [1]: > 150 µM (not active)
- EC50 [2]: > 150 µM (not active)
- EC50 [6]: > 150 µM (not active)

Compound: CCCOc1ccc2c3c(c(=O)oc2c1OCCC)CCCC3
- CC50 [3]: 23.5 µM (active)
- AC50 [7]: 13.7 µM (active)

Compound: O=C(c1cc2sccc2n1Cc1ccc(F)cc1)N1CCc2ccccc21
- CC50 [3]: 36.2 µM (active)

Compound: COc1ccc(/C=C2\SC(=S)N(NS(=O)(=O)c3ccccc3)C2=O)c(OC)c1
- CC50 [3]: 35.4 µM (active)

Compound: NS(=O)(=O)c1ccc(NCc2cnc3ccccc3c2)cc1
- AC50 [8]: 1.58 µM (inconclusive)

Compound: COCC(C)n1c(SCc2ccc(OC)c(F)c2)nc2ccccc2c1=O (stereo unspecified)
- EC50 [4]: 2.17 µM (active)
- EC50 [5]: > 60 µM (not active)

Compound: Cc1ccc(-c2cc(C(F)F)nc(NCc3cccnc3)n2)cc1
- EC50 [4]: 3.05 µM (active)
- EC50 [5]: > 60 µM (not active)

Compound: Cc1ccc(C)c(S(=O)(=O)NC(C)C(=O)Nc2ccc(-c3nc4ccccc4s3)cc2)c1 (stereo unspecified)
- AC50 [8]: 15.8 µM (inconclusive)

Compound: Cc1cc(C(=O)CSc2nnc(N)s2)c(C)n1CCc1ccc(Cl)cc1
- CC50 [3]: 17.1 µM (active)

Compound: Cc1ccc(C)c(OCCCCN2CCNCC2)c1C
- AC50 [9]: 1.03 µM (active)

Compound: CC1CCN(c2ccc(NC(=O)c3ccc([N+](=O)[O-])o3)cc2)CC1
- EC50 [4]: > 16 µM (not active)
- AC50 [7]: 10.3 µM (active)
- EC50 [5]: 4.41 µM (active)

Compound: C[C@H](CO)N1C[C@H](C)[C@@H](CN(C)S(=O)(=O)c2ccccc2)Oc2ccc(NC(=O)Nc3ccc(C(F)(F)F)cc3)cc2C1=O
- AC50 [9]: 8.42 µM (active)

Compound: O=C(c1ccco1)N1CCC2(CCCN(Cc3ccncc3)C2)CC1
- AC50 [8]: 15.8 µM (inconclusive)

Compound: Cc1c(CCC(=O)O)c(=O)oc2cc3occ(-c4ccc(Cl)cc4)c3cc12
- EC50 [1]: > 150 µM (not active)
- EC50 [2]: 7.96 µM (active)
- EC50 [6]: > 150 µM (not active)

Compound: COc1ccc2nc(NC(=S)NC(=O)c3ccco3)sc2c1
- CC50 [3]: > 50 µM (active)

Compound: CN1[C@@H]2CC[C@H]1CC(OC(=O)c1cc(Cl)cc(Cl)c1)C2 (stereo partly specified)
- AC50 [8]: 31.6 µM (inconclusive)

Compound: CCN(CC)S(=O)(=O)c1ccc(Cl)c(C(=O)Nc2ccc(Cl)cc2[N+](=O)[O-])c1
- AC50 [7]: 7.83 µM (active)

Compound: O=C(Nc1ccccc1-c1nc2ccccc2[nH]1)c1ccc(S(=O)(=O)N2CCCCC2)cc1
- AC50 [8]: 3.55 µM (inconclusive)

Compound: CN(C)CCCNS(=O)(=O)c1ccc(NC2CCCCCC2)c([N+](=O)[O-])c1
- AC50 [7]: 6.22 µM (active)

Compound: CCOC(=O)CC(=O)CSc1nc(N)c(C#N)c(-c2ccc(Cl)cc2)c1C#N
- CC50 [3]: 23.6 µM (active)

Compound: Cc1sc2[nH]c(-c3ccccn3)nc(=O)c2c1-c1ccccc1
- EC50 [6]: > 150 µM (not active)

Compound: CCOc1ccc(CNCCCSc2ncccn2)cc1
- EC50 [4]: 0.909 µM (active)
- EC50 [5]: 9.74 µM (active)

Compound: COc1cc(NC(=O)Nc2cccc(Cl)c2)c(OC)cc1NC(=O)CN1CCCCC1
- AC50 [9]: 4.44 µM (active)

Compound: Cc1nc(O)c(C#N)c(Nc2ccc(Cl)cc2)n1
- CC50 [3]: 32.3 µM (active)

Compound: O=C(Nc1nc2cc3c(cc2s1)OCO3)C1CC1
- EC50 [4]: 1.3 µM (active)
- EC50 [5]: > 60 µM (not active)

Compound: CCOCCCN=C(S)N1CCCN(c2nc3cc(C)cc(C)c3cc2C#N)CC1
- CC50 [3]: 31.4 µM (active)

Compound: O=C(NCCc1ccccn1)c1ccc(OC2CCN(Cc3ccccn3)CC2)cc1
- EC50 [1]: > 150 µM (not active)
- EC50 [2]: > 150 µM (not active)
- EC50 [6]: > 150 µM (not active)

Compound: N#CCCn1c(=O)c(-c2ccccc2)nc2cnc(Nc3ccccc3)nc21
- AC50 [8]: 0.794 µM (inconclusive)

Compound: Cc1ccc(C)c(N2CCN(C(=O)c3ccc4c(c3)c(C)c(C)n4C)CC2)c1
- AC50 [9]: 6.01 µM (active)

Compound: CN(C)CC(C)(C)C/N=C/c1c(O)[nH]c2ccccc12
- EC50 [4]: 0.152 µM (active)
- EC50 [5]: > 30 µM (not active)

Compound: COc1ccc(C(=O)N/N=C(\C)Cn2nc([N+](=O)[O-])cc2C)cc1
- AC50 [8]: 20 µM (inconclusive)

Compound: COc1ccc(Br)cc1C(=O)Nc1cccc(C)c1
- AC50 [9]: > 195 µM (inactive)

Compound: Cc1cc(C)nc(NC(=O)/C=C/c2ccc3c(c2)OCO3)c1
- AC50 [9]: 1.91 µM (active)

Compound: COc1ccc(OC)c(NC(=O)c2cccc(Cn3cc(Br)c([N+](=O)[O-])n3)c2)c1
- EC50 [4]: 0.794 µM (active)
- EC50 [5]: 9.07 µM (active)

Compound: COC(=O)NC(=S)Nc1ccc(Oc2ccc(Cl)cc2)c(Cl)c1
- EC50 [4]: 2.41 µM (active)
- EC50 [5]: > 60 µM (not active)

Compound: Cc1cccc(-n2c(N)c(-c3nc4ccccc4n3C)c3nc4ccccc4nc32)c1
- EC50 [1]: > 150 µM (not active)
- EC50 [2]: 3.66 µM (active)
- EC50 [6]: > 150 µM (not active)

Compound: O=C(CCn1ccnc1)Nc1ccc2ccccc2c1
- EC50 [4]: 1.63 µM (active)
- EC50 [5]: > 60 µM (not active)

Compound: COc1cc([N+](=O)[O-])cc(/C=N/NC(=O)C(C)Nc2cccc(C)c2)c1O (stereo unspecified)
- EC50 [1]: > 150 µM (not active)
- EC50 [2]: 10.9 µM (active)
- EC50 [6]: > 150 µM (not active)

Compound: FCCCOc1ccc(-c2nccc(-c3ccc(F)cc3)n2)cc1
- CC50 [3]: 26 µM (active)

Compound: O=C(O)c1ccccc1NCn1c(=S)sc2ccccc21
- AC50 [8]: 0.501 µM (inconclusive)

Compound: Cc1cc(C)nc(NC(=N)NCCc2c[nH]c3ccccc23)n1
- EC50 [1]: > 150 µM (not active)
- EC50 [2]: 7.95 µM (active)
- EC50 [6]: > 150 µM (not active)

Compound: CCOC(=O)C1(S(=O)(=O)c2ccc(Cl)cc2)CCN(Cc2ccc(Cl)cc2)CC1
- AC50 [8]: 31.6 µM (inconclusive)

Compound: COc1cc(C(=O)NCCCN(C)C)ccc1OCC(=O)Nc1cccc(C(F)(F)F)c1
- EC50 [4]: 1.23 µM (active)
- EC50 [5]: > 60 µM (not active)

Compound: Cc1ccc(CN(Cc2cccnc2)C(=O)CN2C(=O)COc3ccccc32)o1
- EC50 [4]: 0.276 µM (active)
- EC50 [5]: > 60 µM (not active)

Compound: CCNC(=O)COC(=O)/C=C/c1c(C)nn(Cc2cccc(OC)c2)c1Cl
- CC50 [3]: > 50 µM (active)

Compound: COCc1cc(C)nc2sc(C(=O)NN)c(-n3cccc3)c12
- CC50 [3]: 14.3 µM (active)

Compound: CN(C)S(=O)(=O)Oc1ccsc1C(=O)Nc1cccc(Cl)c1Cl
- EC50 [4]: 3.47 µM (active)
- EC50 [5]: > 60 µM (not active)
